The values below come from patent US9701689B2, “Substituted pyridines and pyridazines as CCR10 receptor inhibitors” (KYOWA HAKKO KIRIN CO., LTD., priority 2012, dated 2017).

In the assay the target is T1, human CCR10 (Homo sapiens, UniProt P46092).
T1 construct: expressed in transfected cells; host or cells: KJMGER8 cells (Namalwa cell-derived line), beta-estradiol-induced; hCCR10G16 cells
T1 sequence (P46092 1-362): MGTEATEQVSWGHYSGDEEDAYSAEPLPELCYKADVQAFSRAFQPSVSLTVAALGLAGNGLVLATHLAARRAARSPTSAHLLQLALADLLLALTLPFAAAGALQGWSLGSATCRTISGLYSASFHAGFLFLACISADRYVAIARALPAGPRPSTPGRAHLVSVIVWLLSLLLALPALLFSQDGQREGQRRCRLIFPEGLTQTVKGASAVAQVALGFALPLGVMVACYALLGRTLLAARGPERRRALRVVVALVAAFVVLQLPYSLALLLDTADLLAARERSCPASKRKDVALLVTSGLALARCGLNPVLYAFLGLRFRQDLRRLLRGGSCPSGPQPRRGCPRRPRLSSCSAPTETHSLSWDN
The assay is described as follows: CCR10 antagonistic effect: calcium assay of human CCR10 (CTACK-induced increase of intracellular calcium in hCCR10G16 cells). Particulars: at a concentration of not more than 1000 nmol/L; human CCR10-expressing hCCR10G16 cells, 300 nmol/L CTACK added; read-out: inhibition of increase in the calcium ion concentration. Format: cell-based. The essentials:
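Inhibition of CTACK-evoked calcium flux (max minus min Fluo-3 fluorescence over ~5 min, FDSS) was calculated against control in β-estradiol-induced human CCR10/Gα16 KJMGER8 cells, after 30 min compound preincubation at 37 °C; CTACK added from a 300 nmol/L solution.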
(A change in cytosolic calcium serves as a functional read-out for many receptors and channels.)

Molecules are shown by their SMILES.

For `Cc1cc(F)ccc1Nc1cc(S(=O)(=O)NC(=O)C2CC2)ncc1C(=O)N1CCC(c2ccc(F)cc2)CC1` [Compound 160, N-{4-(4-fluoro-2-methylphenylamino)-5-[4-(4-fluorophenyl)piperidine-1-carbonyl]pyridin-2-ylsulfonyl}cyclopropanecarboxamide], the inhibition at up to 1 µM was not below 50%.
In the case of `CCNC(=O)NS(=O)(=O)c1cc(Nc2cc(C)ccc2Cl)c(C(=O)N2CCC(c3ccc(F)cc3)CC2)cn1` [Compound 161, 4-(2-chloro-5-methylphenylamino)-N-(ethylcarbamoyl)-5-[4-(4-fluorophenyl)piperidine-1-carbonyl]pyridine-2-sulfonamide] it was not below 50%; in that of `CCCNC(=O)NS(=O)(=O)c1cc(Nc2cc(C)ccc2Cl)c(C(=O)N2CCC(c3ccc(F)cc3)CC2)cn1` [Compound 162, 4-(2-chloro-5-methylphenylamino)-5-[4-(4-fluorophenyl)piperidine-1-carbonyl]-N-(propylcarbamoyl)pyridine-2-sulfonamide], not below 50%; in that of `CCNC(=O)NS(=O)(=O)c1cc(NCc2ccccc2)c(C(=O)N2CCC(c3ccc(F)cc3)CC2)cn1` [Compound 163, 4-(benzylamino)-N-(ethylcarbamoyl)-5-[4-(4-fluorophenyl)piperidine-1-carbonyl]pyridine-2-sulfonamide], not below 50%.
In the case of `CCNC(=O)NS(=O)(=O)c1cc(Nc2cc(C)c(Cl)cc2Cl)c(C(=O)N2CCC(c3ccc(F)cc3)CC2)cn1` [Compound 164, 4-(2,4-dichloro-5-methylphenylamino)-N-(ethylcarbamoyl)-5-[4-(4-fluorophenyl)piperidine-1-carbonyl]pyridine-2-sulfonamide], the inhibition at up to 1 µM is not below 50%.
Consider `CCCNC(=O)NS(=O)(=O)c1cc(Nc2cc(C)c(Cl)cc2Cl)c(C(=O)N2CCC(c3ccc(F)cc3)CC2)cn1` [Compound 165, 4-(2,4-dichloro-5-methylphenylamino)-5-[4-(4-fluorophenyl)piperidine-1-carbonyl]-N-(propylcarbamoyl)pyridine-2-sulfonamide], for which the inhibition at up to 1 µM was not below 50%.
Regarding `CCNC(=O)NS(=O)(=O)c1cc(Nc2cc(C)c(Cl)cc2C)c(C(=O)N2CCC(c3ccc(F)cc3)CC2)cn1` [Compound 166, 4-(4-chloro-2,5-dimethylphenylamino)-N-(ethylcarbamoyl)-5-[4-(4-fluorophenyl)piperidine-1-carbonyl]pyridine-2-sulfonamide], the inhibition at up to 1 µM is not below 50%.
In the case of `CCCNC(=O)NS(=O)(=O)c1cc(Nc2cc(C)c(Cl)cc2C)c(C(=O)N2CCC(c3ccc(F)cc3)CC2)cn1` [Compound 167, 4-(4-chloro-2,5-dimethylphenylamino)-5-[4-(4-fluorophenyl)piperidine-1-carbonyl]-N-(propylcarbamoyl)pyridine-2-sulfonamide] it was not below 50%.
In the case of `CCCNC(=O)NS(=O)(=O)c1cc(Nc2ccc(F)cc2C)c(C(=O)N2CCC(c3ccc(F)cc3)CC2)cn1` [Compound 168, 4-(4-fluoro-2-methylphenylamino)-5-[4-(4-fluorophenyl)piperidine-1-carbonyl]-N-(propylcarbamoyl)pyridine-2-sulfonamide] it was not below 50%.
In the case of `CCNC(=O)NS(=O)(=O)c1cc(Nc2ccc(Cl)cc2C)c(C(=O)N2CCC(c3ccc(F)cc3)CC2)cn1` [Compound 169, 4-(4-chloro-2-methylphenylamino)-N-(ethylcarbamoyl)-5-[4-(4-fluorophenyl)piperidine-1-carbonyl]pyridine-2-sulfonamide], the inhibition at up to 1 µM was not below 50%.
Take `CCCNC(=O)NS(=O)(=O)c1cc(Nc2ccc(Cl)cc2C)c(C(=O)N2CCC(c3ccc(F)cc3)CC2)cn1` [Compound 170, 4-(4-chloro-2-methylphenylamino)-5-[4-(4-fluorophenyl)piperidine-1-carbonyl]-N-(propylcarbamoyl)pyridine-2-sulfonamide]: the inhibition at up to 1 µM is not below 50%.
In the case of `Cc1cc(F)ccc1Nc1cc(S(=O)(=O)NC(=O)NC(C)C)ncc1C(=O)N1CCC(c2ccc(F)cc2)CC1` [Compound 171, 4-(4-fluoro-2-methylphenylamino)-5-[4-(4-fluorophenyl)piperidine-1-carbonyl]-N-(isopropylcarbamoyl)pyridine-2-sulfonamide] it was not below 50%.
Under `Cc1cc(F)ccc1Nc1cc(S(=O)(=O)NC(=O)NC2CC2)ncc1C(=O)N1CCC(c2ccc(F)cc2)CC1` [Compound 172, N-(cyclopropylcarbamoyl)-4-(4-fluoro-2-methylphenylamino)-5-[4-(4-fluorophenyl)piperidine-1-carbonyl]pyridine-2-sulfonamide] stands not below 50%.
Under `CCOC(=O)NS(=O)(=O)c1cc(Nc2ccc(Cl)cc2C)c(C(=O)N2CCC(c3ccc(F)cc3)CC2)cn1` [Compound 173, ethyl 4-(4-chloro-2-methylphenylamino)-5-[4-(4-fluorophenyl)piperidine-1-carbonyl]pyridin-2-ylsulfonylcarbamate] stands not below 50%; under `CCOC(=O)NS(=O)(=O)c1cc(Nc2ccc(F)cc2C)c(C(=O)N2CCC(c3ccc(F)cc3)CC2)cn1` [Compound 174, ethyl 4-(4-fluoro-2-methylphenylamino)-5-[4-(4-fluorophenyl)piperidine-1-carbonyl]pyridin-2-ylsulfonylcarbamate], not below 50%; under `Cc1cc(F)ccc1Nc1cc(S(=O)(=O)NC(=O)OC(C)C)ncc1C(=O)N1CCC(c2ccc(F)cc2)CC1` [Compound 175, isopropyl 4-(4-fluoro-2-methylphenylamino)-5-[4-(4-fluorophenyl)piperidine-1-carbonyl]pyridin-2-ylsulfonylcarbamate], not below 50%.
For `Cc1cc(Cl)ccc1Nc1c(C(=O)N2CCC(c3ccc(F)cc3)CC2)cnc(S(N)(=O)=O)c1Cl` [Compound 177, 3-chloro-4-(4-chloro-2-methylphenylamino)-5-[4-(4-fluorophenyl)piperidine-1-carbonyl]pyridine-2-sulfonamide], the inhibition at up to 1 µM was not below 50%.
In the case of `COc1ccc(Nc2c(C(=O)N3CCC(c4ccc(F)cc4)CC3)cnc(S(N)(=O)=O)c2Cl)c(C)c1` [Compound 178, 3-chloro-5-[4-(4-fluorophenyl)piperidine-1-carbonyl]-4-(4-methoxy-2-methylphenylamino)pyridine-2-sulfonamide] it was not below 50%; in that of `COc1ccc(Nc2c(C(=O)N3CCC(c4ccc(F)cc4)CC3)cnc(S(N)(=O)=O)c2Cl)c(Cl)c1` [Compound 179, 3-chloro-4-(2-chloro-4-methoxyphenylamino)-5-[4-(4-fluorophenyl)piperidine-1-carbonyl]pyridine-2-sulfonamide], not below 50%; in that of `Cc1c(Cl)cccc1Nc1c(C(=O)N2CCC(c3ccc(F)cc3)CC2)cnc(S(N)(=O)=O)c1Cl` [Compound 180, 3-chloro-4-(3-chloro-2-methylphenylamino)-5-[4-(4-fluorophenyl)piperidine-1-carbonyl]pyridine-2-sulfonamide], not below 50%.
In the case of `Cc1ccc(Nc2c(C(=O)N3CCC(c4ccc(F)cc4)CC3)cnc(S(N)(=O)=O)c2Cl)cc1Cl` [Compound 181, 3-chloro-4-(3-chloro-4-methylphenylamino)-5-[4-(4-fluorophenyl)piperidine-1-carbonyl]pyridine-2-sulfonamide] it was not below 50%.
In the case of `NS(=O)(=O)c1ncc(C(=O)N2CCC(c3ccc(F)cc3)CC2)c(Nc2c(F)cccc2F)c1Cl` [Compound 182, 3-chloro-4-(2,6-difluorophenylamino)-5-[4-(4-fluorophenyl)piperidine-1-carbonyl]pyridine-2-sulfonamide] it was not below 50%; in that of `Cc1cc(F)ccc1Nc1c(C(=O)N2CCC(c3ccc(F)cc3)CC2)cnc(S(=O)(=O)N2CCC(N)CC2)c1Cl` [Compound 184, [6-(4-aminopiperidin-1-ylsulfonyl)-5-chloro-4-(4-fluoro-2-methylphenylamino)pyridin-3-yl][4-(4-fluorophenyl)piperidin-1-yl]methanone], not below 50%.
With `Cc1cc(F)ccc1Nc1c(C(=O)N2CCC(c3ccc(F)cc3)CC2)cnc(S(=O)(=O)N2C(=O)OCC2(C)C)c1Cl` [Compound 187, 3-{3-chloro-4-(4-fluoro-2-methylphenylamino)-5-[4-(4-fluorophenyl)piperidine-1-carbonyl]pyridin-2-ylsulfonyl}-4,4-dimethyloxazolidin-2-one], the inhibition at up to 1 µM is not below 50%.
In the case of `Cc1cc(F)ccc1Nc1c(C(=O)N2CCC(c3ccc(F)cc3)CC2)cnc(S(=O)(=O)Nc2nccs2)c1Cl` [Compound 188, 3-chloro-4-(4-fluoro-2-methylphenylamino)-5-[4-(4-fluorophenyl)piperidine-1-carbonyl]-N-(thiazol-2-yl)pyridine-2-sulfonamide] it was not below 50%; in that of `Cc1cc(F)ccc1Nc1c(C(=O)N2CCC(c3ccc(F)cc3)CC2)cnc(S(=O)(=O)Nc2c(C)noc2C)c1Cl` [Compound 189, 3-chloro-N-(3,5-dimethylisoxazol-4-yl)-4-(4-fluoro-2-methylphenylamino)-5-[4-(4-fluorophenyl)piperidine-1-carbonyl]pyridine-2-sulfonamide], not below 50%.
